Test results taken from ChEMBL document CHEMBL1240317, “Probing cell-division phenotype space and Polo-like kinase function using small molecules” (Nat Chem Biol, 2006).
Each block holds one compound with its values, some of them ahead of it. The source made the active and inactive calls. Unless noted, the calls are words filed in the database; no cut-off is given here.

Legend:
PtK2 [1] = experiment: Inhibition of polo-like kinase 1 activity in rat kangaroo PtK2 cells expressing GFP-labeled alpha-tubulin assessed as interkinetochore distance at 33 uM after 45 mins; assay type: cell-based; details: Potorous tridactylus
PtK2 [2] = experiment: Antimitotic activity in rat kangaroo PtK2 cells expressing GFP-labeled alpha-tubulin in presence of monastrol assessed as cells remained in mitosis at 20 uM after 90 mins by phase-contrast microscopy; assay type: functional, cell-based; details: Potorous tridactylus
U2OS [3] = experiment: Induction of monopolar spindles and reduction in gamma-tubulin at the centrosomes in human U2OS cells at 25 uM after 4 hrs by immunofluorescence; assay type: functional, cell-based
PtK2 [4] = experiment: Inhibition of Aurora kinase activity in rat kangaroo PtK2 cells assessed as histone H3 phosphorylation at 25 uM after 1 hr by quantitative fluorescence; assay type: cell-based; details: Potorous tridactylus
PtK2 [5] = experiment: Induction of mitotic index in rat kangaroo PtK2 cells expressing GFP-labeled alpha-tubulin after 4 hrs; assay type: functional, cell-based; details: Potorous tridactylus
PtK2 [6] = experiment: Inhibition of polo-like kinase 1 activity in rat kangaroo PtK2 cells expressing GFP-labeled alpha-tubulin assessed as phosphorylation of Cdc25c at 20 uM after 1 hr by quantitative immunofluorescence; assay type: cell-based; details: Potorous tridactylus
[7] = target: T1, Serine/threonine-protein kinase PLK1 (Homo sapiens, UniProt P53350); experiment: Inhibition of recombinant polo-like kinase 1 activity by SDS-PAGE
T1 sequence (P53350 whole entry): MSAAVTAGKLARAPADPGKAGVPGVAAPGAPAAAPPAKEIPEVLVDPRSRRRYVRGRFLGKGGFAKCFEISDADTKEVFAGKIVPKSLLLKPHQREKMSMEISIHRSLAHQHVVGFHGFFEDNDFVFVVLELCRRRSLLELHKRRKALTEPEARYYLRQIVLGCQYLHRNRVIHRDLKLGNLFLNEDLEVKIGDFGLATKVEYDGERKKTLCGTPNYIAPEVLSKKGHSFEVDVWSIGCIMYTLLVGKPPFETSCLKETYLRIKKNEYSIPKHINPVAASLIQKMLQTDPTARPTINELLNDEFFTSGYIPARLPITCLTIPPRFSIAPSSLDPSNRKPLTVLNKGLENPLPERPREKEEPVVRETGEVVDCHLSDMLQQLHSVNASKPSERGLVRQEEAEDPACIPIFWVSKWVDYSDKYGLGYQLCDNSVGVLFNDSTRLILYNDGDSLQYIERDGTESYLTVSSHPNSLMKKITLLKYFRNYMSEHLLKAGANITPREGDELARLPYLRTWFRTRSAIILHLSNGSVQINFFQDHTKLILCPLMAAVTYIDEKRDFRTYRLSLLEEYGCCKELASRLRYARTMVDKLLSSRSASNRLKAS

PtK2 [8] = experiment: Induction of monopolar mitotic spindles in rat kangaroo PtK2 cells expressing GFP-labeled alpha-tubulin after 4 hrs; assay type: functional, cell-based; details: Potorous tridactylus
PtK2 [9] = experiment: Induction of monopolar mitotic spindles in rat kangaroo PtK2 cells expressing GFP-labeled alpha-tubulin at 20 uM after 4 hrs; assay type: functional, cell-based; details: Potorous tridactylus
PtK2 [10] = experiment: Inhibition of polo-like kinase 1 activity in rat kangaroo PtK2 cells expressing GFP-labeled alpha-tubulin assessed as phosphorylation of Cdc25c at centrosomes after 1 hr by quantitative immunofluorescence; assay type: cell-based; details: Potorous tridactylus
PtK2 [11] = experiment: Inhibition of polo-like kinase 1 activity in rat kangaroo PtK2 cells expressing GFP-labeled alpha-tubulin assessed as interkinetochore distance at 20 uM after 45 mins; assay type: cell-based; details: Potorous tridactylus
U2OS [12] = experiment: Induction of monopolar spindles and reduction in gamma-tubulin at the centrosomes in human U2OS cells at 50 uM after 4 hrs by immunofluorescence; assay type: functional, cell-based
PtK2 [13] = experiment: Inhibition of polo-like kinase 1 activity in rat kangaroo PtK2 cells expressing GFP-labeled alpha-tubulin assessed as shortening of chromosome associated microtubule fibres at 6.3 uM by spinning disk confocal microscopy in presence of 20 uM MG132; assay type: cell-based; details: Potorous tridactylus
BSC-1 [14] = experiment: Induction of reduced mitotic index in african green monkey BSC1 cells at 20 uM after 4 hrs by immunocytochemistry; assay type: functional, cell-based; details: Chlorocebus aethiops
PtK2 [15] = experiment: Inhibition of polo-like kinase 1 activity in rat kangaroo PtK2 cells expressing GFP-labeled alpha-tubulin assessed as shortening of chromosome associated microtubule fibres at 20 uM by spinning disk confocal microscopy in presence of 20 uM MG132; assay type: cell-based; details: Potorous tridactylus
BSC-1 [16] = experiment: Antimitotic activity against african green monkey BSC1 cells assessed as induction of sphere like organization at 2.5 uM by immunofluorescence microscopy; assay type: functional, cell-based; details: Chlorocebus aethiops
PtK2 [17] = experiment: Change in microtubule dynamics in rat kangaroo PtK2 cells expressing GFP-labeled alpha-tubulin by replacing with PLK inhibitor- free medium; assay type: functional, cell-based; details: Potorous tridactylus
BSC-1 [18] = experiment: Induction of monopolar mitotic spindles in african green monkey BSC1 cells assessed as kinesin-5 (Eg5) inhibition at 100 uM after 4 hrs; assay type: functional, cell-based; details: Chlorocebus aethiops
BSC-1 [19] = experiment: Antimitotic activity against african green monkey BSC1 cells assessed as induction of monopolar spindles by immunofluorescence microscopy; assay type: functional, cell-based; details: Chlorocebus aethiops
PtK2 [20] = experiment: Inhibition of polo-like kinase 1 activity in rat kangaroo PtK2 cells expressing GFP-labeled alpha-tubulin assessed as stable microtubule bundles at 6.3 uM at 20 sec time interval for 5 min by spinning disk confocal microscopy; assay type: cell-based; details: Potorous tridactylus
[21] = target: T1, Serine/threonine-protein kinase PLK1; experiment: Inhibition of recombinant polo-like kinase 1 activity at 100 nM by SDS-PAGE
PtK2 [22] = experiment: Inhibition of polo-like kinase 1 activity in rat kangaroo PtK2 cells expressing GFP-labeled alpha-tubulin assessed as phosphorylation of Cdc25c at 6.3 uM after 1 hr by quantitative immunofluorescence; assay type: cell-based; details: Potorous tridactylus
BSC-1 [23] = experiment: Antimitotic activity against african green monkey BSC1 cells assessed as induction of monopolar spindles at 20 uM by immunofluorescence microscopy; assay type: functional, cell-based; details: Chlorocebus aethiops
PtK2 [24] = experiment: Antimitotic activity in rat kangaroo PtK2 cells expressing GFP-labeled alpha-tubulin in presence of monastrol assessed as cells remained in mitosis at 6 uM after 90 mins by phase-contrast microscopy; assay type: functional, cell-based; details: Potorous tridactylus
PtK2 [25] = experiment: Inhibition of polo-like kinase 1 activity in rat kangaroo PtK2 cells expressing GFP-labeled alpha-tubulin assessed as V-shaped chromosome at 20 uM by spinning disk confocal microscopy in presence of 20 uM MG132; assay type: cell-based; details: Potorous tridactylus
BSC-1 [26] = experiment: Induction of monopolar mitotic spindles in african green monkey BSC1 cells assessed as percentage of monopolar cells with two centrosomes at 5 uM after 4 hrs; assay type: functional, cell-based; details: Chlorocebus aethiops
PtK2 [27] = experiment: Induction of monopolar mitotic spindles in rat kangaroo PtK2 cells expressing GFP-labeled alpha-tubulin at 6.3 uM after 4 hrs; assay type: functional, cell-based; details: Potorous tridactylus
PtK2 [28] = experiment: Inhibition of polo-like kinase 1 activity in rat kangaroo PtK2 cells expressing GFP-labeled alpha-tubulin assessed as interkinetochore distance at 6 uM after 45 mins; assay type: cell-based; details: Potorous tridactylus
PtK2 [29] = experiment: Inhibition of polo-like kinase 1 activity in rat kangaroo PtK2 cells expressing GFP-labeled alpha-tubulin assessed as V-shaped chromosome at 6.3 uM by spinning disk confocal microscopy in presence of 20 uM MG132; assay type: cell-based; details: Potorous tridactylus
PtK2 [30] = experiment: Inhibition of Aurora kinase activity in rat kangaroo PtK2 cells assessed as histone H3 phosphorylation at 6.3 uM after 1 hr by quantitative fluorescence; assay type: cell-based; details: Potorous tridactylus

SMILES: COC(=O)Nc1nc2cc(C(=O)c3cccs3)ccc2[nH]1
interkinetochore distance (PtK2 [1]): 1.4 µm

IC50 [7]: 8 µM
SMILES: N#Cc1cc([N+](=O)[O-])c2sc(C(N)=O)[n+]([O-])c2c1
Activity (PtK2 [2]): Active
Activity (U2OS [3]): Active
inhibition (PtK2 [4]): 20%
Activity (PtK2 [5]): Dose-dependent effect
inhibition (PtK2 [6]): Active
Activity (PtK2 [8]): Dose-dependent effect
Activity (PtK2 [9]): Active
Activity (PtK2 [10]): Dose-dependent effect
interkinetochore distance (PtK2 [11]): 2.3 µm
Activity (U2OS [12]): Active

EC50 (BSC-1 [19]): 5 µM
IC50 [7]: 0.9 µM
inhibition [21]: inactive
SMILES: CC(=O)Nc1ccc(Nc2ncc([N+](=O)[O-])c(Nc3ccccc3C(=O)c3ccccc3)n2)cc1
inhibition (PtK2 [13]): Active
Activity (BSC-1 [14]): Active
inhibition (PtK2 [15]): Active
Activity (BSC-1 [16]): Active
Activity (U2OS [3]): Active
Activity (PtK2 [17]): Active
Activity (BSC-1 [18]): Active
Activity (PtK2 [5]): Dose-dependent effect
inhibition (PtK2 [20]): Active
Activity (PtK2 [8]): Dose-dependent effect
Activity (PtK2 [10]): Dose-dependent effect
inhibition (PtK2 [22]): Active
Activity (BSC-1 [23]): Active
Activity (PtK2 [24]): Active
Activity (U2OS [12]): Active
inhibition (PtK2 [25]): Active
Activity (BSC-1 [26]): Active
Activity (PtK2 [27]): Active
interkinetochore distance (PtK2 [28]): 1.9 µm
inhibition (PtK2 [29]): Active
inhibition (PtK2 [30]): 20%
